Reference: article PMC10814725, “In Vitro Anti-Inflammatory Study of Limonoids Isolated from Chisocheton Plants” (Current Issues in Molecular Biology, 2024)
Like-named read-outs stand apart in the source and are kept apart here.

Tests used:
[1] = system: TLR4-dependent NF-kB activation in HEK-Blue hTLR4 cells; assay: SEAP reporter gene assay, antagonist effect on LPS-stimulated TLR4-dependent NF-κB activation; format: cell-based, human; settings: 20 µM, LPS 10 ng/mL, 18 h, vs. LPS stimulated-only group
Protocol: (§1) The SEAP Reporter Gene Assay was conducted as previously described. HEK-Blue^TM hTLR4 cells (2 × 10^4 cells/well) were seeded in 96-well plates and were serum-starved for 24 h at 37 °C in a 5% carbon dioxide atmosphere. After incubation, the culture medium was aspirated, and the cells were washed with saline. High-glucose D-MEM supplemented with 0.1% FBS and 1% penicillin-streptomycin was added and treated with or without the 17 limonoids at a concentration of 20 µM for 1 h, followed by LPS addition at a concentration of 10 ng/mL for the LPS-stimulated group. After incubation at 37 °C for 18 h, the supernatants were collected and PNPP in PBS solution (0.8 mM, 100 μL) was added, followed by 4 h of shading at 25 °C. The optical density (OD) of the samples was measured at 405 nm using a microplate reader (BioTek Cytation 5 Cell Imaging Multimode Reader, Agilent Technologies, Santa Clara, CA, USA).

[2] = system: NF-κB activation in HEK-Blue hTLR4 cells; assay: SEAP reporter gene assay, agonist effect on NF-κB activation (without LPS); format: cell-based, human; settings: 20 µM, compared to LPS (−)-treated cells
Protocol: as §1

[3] = Cell viability by CCK-8, THP-1 cells; format: cell-based; settings: human, PMA-differentiated THP-1 cells, 10 µM, 18 h
Protocol: (§2) The viability of HEK-Blue^TM hTLR4, […], and THP-1 cells was evaluated using the Dojindo Cell Counting Kit-8 (CCK-8) according to the manufacturer’s instructions. The viability of HEK-Blue^TM hTLR4 and THP-1 cells was assessed under identical conditions to the corresponding assay treatments. HEK-Blue^TM hTLR4 cells (2 × 10^4 cells/well) were seeded in 96-well plates and serum-starved for 24 h at 37 °C in a 5% CO2 atmosphere. After incubation, the culture medium was aspirated, and the cells were washed with saline. High-glucose D-MEM supplemented with 0.1% FBS and 1% penicillin–streptomycin was added and pretreated with or without the 17 limonoids at a concentration of 20 µM for 1 h, followed by LPS addition at a concentration of 10 ng/mL. After 18 h of incubation, a 10% (v/v) CCK-8 solution was added to each well and incubated at 37 °C for 1 h, and cell viability was calculated.
The THP-1 cells at 5 × 10^4 cells/well were differentiated for 24 h in the presence of PMA (0.5 μM solution in medium). After 24 h of incubation, the culture medium was removed from the 96-well plate and the cells were washed with PBS. Fresh RPMI-1640 medium supplemented with 0.1% FBS and 1% penicillin–streptomycin was added to each well and incubated at 37 °C for overnight. The cells were pretreated with 17 limonoids at the corresponding concentration for 1 h followed by the addition of LPS (10 ng/mL) and incubated at 37 °C for 18 h. Furthermore, CCK-8 solution was added to each well with a final concentration was 10% (v/v) and incubated at 37 °C. After 1 h, the absorbance of each well was measured at […] by using a microplate reader (BioTek Cytation 5 Cell Imaging Multimode Reader). Cell viability was calculated using the following formula: % Cell viability=(Absorbance of sample−Absorbance of Background)/(Absorbance of control−Absorbance of Background)×100 where the absorbance of the sample is the absorbance of cells treated by the compound with or without LPS, the absorbance of the control is the absorbance of LPS (−)-treated cells, and the background absorbance is the absorbance of a well containing only the medium. The results were expressed as 100% cell viability.

[4] = Cell viability by CCK-8, HEK-Blue hTLR4 cells; format: cell-based; settings: human
Protocol: as §2

in vitro = format: cell-based; settings: mouse
Protocol: as §2

[5] = system: TNF-α, IL-6, IL-1β, and MCP-1; assay: ELISA of pro-inflammatory markers overall (TNF-α, IL-6, IL-1β, MCP-1) in LPS-stimulated THP-1 cells; format: cell-based; settings: Homo sapiens, read-out: Overall IC50 values for the evaluated pro-inflammatory markers
Protocol: The logarithmic growth phase of THP-1 cells was achieved by seeding in 96-well plates at a density of 5 × 10^4 cells/well and differentiated for 24 h in the presence of PMA (0.5 μM solution in medium). After 24 h of incubation, the culture medium was removed from the 96-well plate and the cells were washed with PBS. Fresh RPMI-1640 medium supplemented with 0.1% FBS and 1% Penicillin–Streptomycin was added to each well and incubated at 37 °C overnight. The cells were pretreated with 17 limonoids at the corresponding concentration for 1 h, followed by the addition of LPS (10 ng/mL) and then incubation at 37 °C for 18 h. Finally, 50 μL of each culture supernatant solution was taken to determine the concentrations of IL-6, MCP-1, and IL-1β using the corresponding commercially available human ELISA kits following the manufacturer’s instructions. The analyte concentration in the supernatant was measured in pg/mL, and the inhibition level was expressed as a fold change compared to the LPS (−) control group. To determine the IC50 value, the dose-response data were normalized to the LPS-stimulated-only group, and the percentage of inhibition was calculated using the following formula: % Inhibition=(Absorbance of LPS+ control−Absorbance of compound treatment with LPS)/(Absorbance of LPS+ control−Absorbance of LPS− control)×100
Furthermore, the % inhibition data were interpolated into linear equations to determine the IC50 values.

Compound: CC1(C)C(=O)C=CC2(C)C1=C(O)C(=O)C1(C)C2(O)C(O)CC2(C)C(c3ccoc3)CC3OC321 (stereo not shown) [Compound 17, pentandricine G]
- Inhibition of SEAP release (NF-κB activity inhibition) [1]: significantly inhibited SEAP release
- Agonist effect on NF-κB activation [2]: weak agonist effect
- viability at 18 h, 10 µM ([3]; LPS 10 ng/mL, read-out: Viability Cell (%) THP-1 LPS-Induced (10 ng/mL)): > 99.9%
- viability at 18 h, 10 µM ([3]; without LPS, read-out: Viability Cell (%) THP-1 Without LPS): 87.3 ± 4.18%
- viability at 18 h, 20 µM ([4]; Viability Cell (%) HEK-Blue hTLR4 LPS-Induced (10 ng/mL)): 64.2 ± 9.05%
- viability at 18 h, 20 µM ([4]; Viability Cell (%) HEK-Blue hTLR4 Without LPS): > 99.9%
- viability at 5 µM (in vitro): 77.5 ± 10.2%
- viability at 10 µM (in vitro): 72.2 ± 4.68%
- viability at 20 µM (in vitro): 73.1 ± 2.02%
- IC50 [5]: < 20 µM
